Laboratory results: patent US8236820B2, “Anti-inflammatory compounds and uses thereof” (priority 2007, dated 2012)

Columns and labels:
[1] = tested on: MDA-MB231; assay: Cell viability (MTT) assay, 24-h IC50, MDA-MB231; assay type: cell-based, human; conditions: Homo sapiens, MDA-MB-231, 24 h, read-out: 24-h IC50
[2] = tested on: MIA-PaCa-2; assay: Cell viability (MTT) assay, 24-h IC50, MIA-PaCa-2; assay type: cell-based, human; conditions: Homo sapiens, MIA PaCa-2, 24 h, read-out: 24-h IC50
[3] = tested on: MDA-MB 231 human breast cancer cells; assay: Annexin V and propidium iodide staining in MDA-MB231; assay type: cell-based; conditions: MDA-MB231, compound at its IC50, 24 h
Description: Annexin V and propidium iodide (PI) staining: Cells were seeded at a density of 1×10^5 cells/well and treated for 24 h with various concentrations of each compound or equivalent volumes of DMSO. Briefly, after incubation with the test compounds, cells were trypsinized and stained with Annexin V-FITC (Invitrogen) and PI (0.5 μg/ml). Following incubation at room temperature for 15 min in the dark, annexin V-FITC and PI fluorescence intensities were analyzed by FACScaliber (BD Bioscience). Annexin V (+)/PI (−) cells are in early apoptosis, annexin V (+)/PI (+) cells are in late apoptosis (secondary necrosis), and annexin V (−)/ PI (+) cells are necrotic cells.
As summarized in Table 2 below, in MDA-MB231 cells, all six compounds, each used at its IC50 concentration, a) inhibited cell proliferation between 6% and 50% compared to controls; b) induced both early and late apoptosis, as well as necrosis; and c) inhibited the G1 to S cell cycle phase transition. In this Table, the values for proliferation are the percentage of the corresponding control values. Those for apoptosis and necrosis refer to the percentage of cells in each category with respect to the entire cell population, and are to be compared to the control (vehicle only-treated) cells (uppermost row).

[4] = tested on: HT-29; assay: DFMO / phospho-sulindac I synergy, cell growth at 48 h, HT-29; assay type: cell-based, human; conditions: HT-29, 48 h; DFMO 5 mM, phospho-sulindac I 40 μM
Description: (§1) A—Left panel: Cell viability was determined in HT-29 (full bars) and SW-480 (empty bars) cells after 48 h of incubation with 5 mM DFMO, 40 μM phospho-sulindac (P-S) or simultaneous combination of DFMO and P-S. Data are expressed as percentage of control cells (cells incubated only with DMSO). […] Right panel: In this isobologram the additivity line connects the IC50 value of each compound used alone. A and B represent two different dose pairs of each compound (their respective concentrations are shown in parentheses). The location of both A and B below the additivity line signifies synergy. […] DNA content was determined from propidium iodide (PI) fluorescence. C—Apoptosis and necrosis were determined by combined staining with annexin V and PI and determining fluorescence intensity. The percentages of apoptotic cells were determined using the dual staining with annexin V and propidium iodide and are indicated in each quadrant: left bottom quadrant, viable cells (annexin V-negative/PI-negative); right bottom quadrant, early apoptotic cells (annexin V-positive/PI-negative); right upper quadrant, late apoptotic cells (annexin V-positive/PI-positive); left upper quadrant, necrotic cells (annexin V-negative, PI-positive). […]

[5] = tested on: HT-29 cells; assay: Cell cycle analysis, DFMO and phospho-sulindac I, 48 h; assay type: cell-based, human; conditions: DFMO 5 mM, phospho-sulindac I 40 μM
Description: as §1

[6] = tested on: spermidine/spermine N^1-acetyltransferase (SSAT); assay: SSAT enzymatic activity in HT-29 cells; assay type: cell-based, human; conditions: HT-29, 24 h; phospho-sulindac I 85 μM; P<0.05 versus control
Description: SW480 cells were incubated without or with phospho-sulindac I (P-S) for up to 24 h and SSAT activity was determined at each time point by determining the amount of labelled N1-acetylspermidine synthesized from [^14C]acetyl-CoA and unlabeled spermidine.
The effect of phospho-sulindac I on polyamines is mediated, at least in part, by activation of SSAT by phospho-sulindac I. It is known that conventional sulindac induces SSAT activity (Babbar et al., Cyclooxygenase-independent induction of apoptosis by sulindac sulfone is mediated by polyamines in colon cancer. J Biol Chem 2003; 278(48):47762-75.). Incubation of HT-29 and SW480 cells with 85 μM phospho-sulindac I for 24 h leads to a 3- and 4.4-fold increase of SSAT activity (P<0.05 versus control), respectively. On the other hand, incubation with sulindac led to a 1.5 and 2.5-fold increase of SSAT activity (P<0.05 versus control) in HT-29 and SW480 cells, respectively.

[7] = assay type: in vivo; conditions: 5 days oral gavage
Description: Phospho-sulindac I lacked gastrointestinal toxicity in mice; gastrointestinal toxicity is the major side effect of sulindac as well as of the entire class of NSAIDs. We evaluated in mice the potential toxicity of phospho-sulindac I. Three groups, each consisting of 8 female C57BL/6J+/+mice 6 wks of age, were treated for 5 days by oral gavage with equimolar amounts of phospho-sulindac I (317 mg/kg/d) or conventional sulindac (200 mg/kg/day) or vehicle. Mice were weighed at time 0 and on days 3 and 5. Mice surviving to the end of the study were euthanized and necropsied.
The stomachs of sulindac-treated animals were larger than those of the other two groups and in some the liver appeared hyperemic.

[8] = tested on: BxPC-3; assay: Cell viability (MTT) assay, 24-h IC50, BxPC-3; conditions: Homo sapiens, BXPC-3, 24 h, read-out: 24-h IC50
Description: Cells were incubated at 37° C. in 5% CO2. Cells were seeded at 5.5×10^4 cells/cm^2, allowed to attach overnight, and the following morning cells were treated with each of the test compounds.
Cell viability assay: We used an assay based on the reduction of 3-(4,5-dimethylthiazol-2-yl)-2,5-diphenyltetrazolium bromide dye (MTT), which was determined according to the manufacture's protocol (Promega, Madison, Wis., USA).

CCOP(=O)(OCC)OCCCCOC(=O)CC1=C(C)/C(=C/c2ccc([S+](C)[O-])cc2)c2ccc(F)cc21 (centres unmarked) [Phospho-sulindac I]
IC50 [1]: 17 µM | IC50 [2]: 88 µM | Necrosis (%) ([3]; % of entire cell population (control 0.6)): 1.1% | Early apoptosis (%) ([3]; % of entire cell population (control 1.4)): 1.7% | Late apoptosis (%) ([3]; % of entire cell population (control 2.0)): 4.7% | reduction in cell number [4]: 41% | G1 population arrest [5]: 75% | S phase [5]: 13.6% | increase of SSAT activity [6]: 3 fold | inspection of the heart, lungs, spleen, kidneys and liver ([7]; 317 mg/kg/d): no abnormalities | gastrointestinal or other toxicity (necropsy) ([7]; phospho-sulindac I 317 mg/kg/d, sulindac 200 mg/kg/day): no evidence of gastrointestinal or other toxicity | mortality ([7]; phospho-sulindac I 317 mg/kg/d, sulindac 200 mg/kg/day, 8 mice/group): 0% | body weight at end of study ([7]; phospho-sulindac I 317 mg/kg/d, sulindac 200 mg/kg/day, start 16.3±1.2, mean±SD): 15.7 ± 1.2 g | IC50 [8]: 62 µM
